Source: patent US10131645B2, “Benzofurans substituted with primary benzamide as HCV inhibitors” (BRISTOL-MYERS SQUIBB COMPANY, priority 2015, dated 2018)

Tested on: HCV
Test: not given
Conditions: extended dosing of the combination regimens; cited from earlier work
For `CNC(=O)c1c(-c2ccc(F)cc2)oc2cc(N(CCO)S(C)(=O)=O)c(C3CC3)cc12` [HCV-796], the hepatic toxicity is listed as “hepatic toxicity observed”.

Same assay, conditions: patients; single agent transient, more robust with interferon and ribavirin; cited from earlier work
For `CNC(=O)c1c(-c2ccc(F)cc2)oc2cc(N(CCO)S(C)(=O)=O)c(C3CC3)cc12` [HCV-796], the “HCV RNA levels in patients” value is given as “reduce HCV RNA levels”.

Tested on: genotype 1b (Con-1) HCV replicon
Test: HCV Replicon Luciferase Assay
Type: cell-based
Conditions: Hepatitis C virus, 72 h; Huh-7 cells, genotype 1b replicon, Renilla luciferase, 3 days incubation; read-out: EC50 1b (class)
Method: The cell lines used to evaluate compounds consist of a human hepatocyte derived cell line (Huh-7) that constitutively expresses a genotype 1b (Con-1) HCV replicon or a genotype 1b (Con-1) HCV replicon with an asparagine replacing the cysteine at amino acid 316, or a genotype 2a (JFH-1) replicon, containing a Renilla luciferase reporter gene. These cells were maintained in Dulbecco's modified Eagle medium (DMEM) containing 10% FBS, 100 U/mL penicillin/streptomycin and 1.0 mg/mL G418.
To evaluate compound efficacy, titrated compounds were transferred to sterile 384-well tissue culture treated plates, and the plates were seeded with HCV replicon cells (50 μL at a density of 2.4×10^3 cells/well) in DMEM containing 4% FBS (final DMSO concentration at 0.5%). After 3 days incubation at 37° C., cells were analyzed for Renilla Luciferase activity using the EnduRen substrate (Promega cat #E6485) according to the manufacturer's directions. Briefly, the EnduRen substrate was diluted in DMEM and then added to the plates to a final concentration of 7.5 μM. The plates were incubated for at least 1 h at 37° C. then read on a Viewlux Imager (PerkinElmer) using a luminescence program. The 50% effective concentration (EC50) was calculated using the four-parameter logistic formula noted above.
In the case of `CCNc1cc2oc(-c3ccc(F)cc3)c(C(=O)NC)c2cc1-c1cccc(C(=O)NCC(F)(F)c2ccccn2)c1` [Compound 1002], the EC50 is reported as less than 0.1 µM. For `CCNc1cc2oc(-c3ccc(F)cc3)c(C(=O)NC)c2cc1-c1cccc(C(=O)NCC(C)(C)c2ccccc2)c1` [Compound 1003], the EC50 was less than 0.1 µM. With `CCNc1cc2oc(-c3ccc(F)cc3)c(C(=O)NC)c2cc1-c1cccc(C(=O)NCC(C)(C)c2ccc(Cl)cc2)c1` [Compound 1004] the EC50 was less than 0.1 µM. For `CCNc1cc2oc(-c3ccc(F)cc3)c(C(=O)NC)c2cc1-c1cccc(C(=O)NC(C)(C(=O)OC)C(F)(F)F)c1` (centres unmarked) [Compound 1005], the EC50 was less than 0.1 µM. Compound `CCNc1cc2oc(-c3ccc(F)cc3)c(C(=O)NC)c2cc1-c1cccc(C(=O)NC(C#N)C(=O)NC)c1` (centres unmarked) [Compound 1007] has an EC50 of less than 0.1 µM. `CCNc1cc2oc(-c3ccc(F)cc3)c(C(=O)NC)c2cc1-c1cccc(C(=O)NC(C#N)C(N)=O)c1` (centres unmarked) [Compound 1008] showed an EC50 of less than 0.1 µM. Work on `CCNc1cc2oc(-c3ccc(F)cc3)c(C(=O)NC)c2cc1-c1cccc(C(=O)NC[C@H](F)CO)c1` [Compound 1009] yielded an EC50 of less than 0.1 µM. For `CCNc1cc2oc(-c3ccc(F)cc3)c(C(=O)NC)c2cc1-c1cccc(C(=O)NC(C)(C#N)C2CC2)c1` (centres unmarked) [Compound 1010], the EC50 was less than 0.1 µM. With `CCNc1cc2oc(-c3ccc(F)cc3)c(C(=O)NC)c2cc1-c1cccc(C(=O)NC(C(=O)OC)C(F)(F)F)c1` (centres unmarked) [Compound 1012] the EC50 was 0.1 to 1 µM. Compound `CCN(c1cc2oc(-c3ccc(F)cc3)c(C(=O)NC)c2cc1-c1cccc(C(=O)NC(c2ccccc2)C(F)(F)F)c1)S(C)(=O)=O` (centres unmarked) [Compound 2001] has an EC50 of less than 0.1 µM. `CCN(c1cc2oc(-c3ccc(F)cc3)c(C(=O)NC)c2cc1-c1cccc(C(=O)NC(c2ccccn2)C(F)(F)F)c1)S(C)(=O)=O` (centres unmarked) [Compound 2002] showed an EC50 of less than 0.1 µM. `CCN(c1cc2oc(-c3ccc(F)cc3)c(C(=O)NC)c2cc1-c1cccc(C(=O)NC(C2CC2)C(F)(F)F)c1)S(C)(=O)=O` (centres unmarked) [Compound 2003] gave an EC50 of less than 0.1 µM. For `CCN(c1cc2oc(-c3ccc(F)cc3)c(C(=O)NC)c2cc1-c1cccc(C(=O)NC(C(=O)OC)C(F)(F)F)c1)S(C)(=O)=O` (centres unmarked) [Compound 2005], the EC50 was 0.1 to 1 µM. In the case of `CCN(c1cc2oc(-c3ccc(F)cc3)c(C(=O)NC)c2cc1-c1cccc(C(=O)NC(C#N)c2ccccc2)c1)S(C)(=O)=O` (centres unmarked) [Compound 2006], the EC50 is reported as less than 0.1 µM. In the case of `CCN(c1cc2oc(-c3ccc(F)cc3)c(C(=O)NC)c2cc1-c1cccc(C(=O)NC(C(N)=O)c2ccccc2)c1)S(C)(=O)=O` (centres unmarked) [Compound 2007], the EC50 is reported as 0.1 to 1 µM. With `CCOc1cc(C(C#N)NC(=O)c2cccc(-c3cc4c(C(=O)NC)c(-c5ccc(F)cc5)oc4cc3N(CC)S(C)(=O)=O)c2)ccc1OC(C)C` (centres unmarked) [Compound 2008] the EC50 was less than 0.1 µM. For `CNC(=O)c1c(-c2ccc(F)cc2)oc2cc(N(CC3CC3)S(C)(=O)=O)c(-c3cccc(C(=O)NC(C)(C#N)C4CC4)c3)cc12` (centres unmarked) [Compound 3001], the EC50 was less than 0.1 µM. `CNC(=O)c1c(-c2ccc(F)cc2)oc2cc(N(CCF)S(C)(=O)=O)c(-c3cccc(C(=O)N[C@H](COC)C4CC4)c3)cc12` [Compound 4001] showed an EC50 of less than 0.1 µM. `CNC(=O)c1c(-c2ccc(F)cc2)oc2cc(N(CCF)S(C)(=O)=O)c(-c3cccc(C(=O)N[C@@H](COC)C4CC4)c3)cc12` [Compound 4002] gave an EC50 of less than 0.1 µM. Compound `CNC(=O)c1c(-c2ccc(F)cc2)oc2cc(N(CCF)S(C)(=O)=O)c(-c3cccc(C(=O)N[C@@H](CO)C4CC4)c3)cc12` [Compound 4003] has an EC50 of less than 0.1 µM. Work on `CNC(=O)c1c(-c2ccc(F)cc2)oc2cc(N(CCCF)S(C)(=O)=O)c(-c3cccc(C(=O)NC(c4ccccn4)C(F)(F)F)c3)cc12` (centres unmarked) [Compound 5002] yielded an EC50 of less than 0.1 µM. In the case of `CNC(=O)c1c(-c2ccc(F)cc2)oc2cc(N(CCCF)S(C)(=O)=O)c(-c3cccc(C(=O)NC(C)(C#N)C4CC4)c3)cc12` (centres unmarked) [Compound 5003], the EC50 is reported as less than 0.1 µM. `CCN(CC)c1cc2oc(-c3ccc(F)cc3)c(C(=O)NC)c2cc1-c1cccc(C(=O)NC(C(N)=O)c2ccccc2)c1` (centres unmarked) [Compound 6001] gave an EC50 of less than 0.1 µM. Compound `CCN(CC)c1cc2oc(-c3ccc(F)cc3)c(C(=O)NC)c2cc1-c1cccc(C(=O)N[C@@H](CO)C(N)=O)c1` [Compound 6002] has an EC50 of 0.1 to 1 µM. `CCN(CC)c1cc2oc(-c3ccc(F)cc3)c(C(=O)NC)c2cc1-c1cccc(C(=O)NCC(C(=O)O)C(F)(F)F)c1` (centres unmarked) [Compound 6005] showed an EC50 of 0.1 to 1 µM. For `CCN(C(=O)C(F)(F)F)c1cc2oc(-c3ccc(F)cc3)c(C(=O)NC)c2cc1-c1cccc(C(=O)NC(C(=O)OC)C(F)(F)F)c1` (centres unmarked) [Compound 7001], the EC50 was 0.1 to 1 µM.

Same assay, conditions: Hepatitis C virus, 72 h; Huh-7 cells, genotype 1b replicon, Renilla luciferase, 3 days incubation; read-out: EC50 (uM) 1b
Compound `CCNc1cc2oc(-c3ccc(F)cc3)c(C(=O)NC)c2cc1-c1cccc(C(=O)NCC(F)(F)c2ccccc2)c1` [Compound 1001] has an EC50 of 0.0486 µM. Compound `CCNc1cc2oc(-c3ccc(F)cc3)c(C(=O)NC)c2cc1-c1cccc(C(=O)NC(C#N)c2ccccc2)c1` (centres unmarked) [Compound 1006] has an EC50 of 0.0162 µM. `CCNc1cc2oc(-c3ccc(F)cc3)c(C(=O)NC)c2cc1-c1cccc(C(=O)NC(C2CC2)C(F)(F)F)c1` (centres unmarked) [Compound 1011] gave an EC50 of 0.0128 µM. Work on `CCN(c1cc2oc(-c3ccc(F)cc3)c(C(=O)NC)c2cc1-c1cccc(C(=O)NC(c2cccnc2)C(F)(F)F)c1)S(C)(=O)=O` (centres unmarked) [Compound 2004] yielded an EC50 of 0.0096 µM. `CCN(c1cc2oc(-c3ccc(F)cc3)c(C(=O)NC)c2cc1-c1cccc(C(=O)NC(C)(C#N)C2CC2)c1)S(C)(=O)=O` (centres unmarked) [Compound 2009] gave an EC50 of 0.0032 µM. In the case of `CNC(=O)c1c(-c2ccc(F)cc2)oc2cc(N(CCCF)S(C)(=O)=O)c(-c3cccc(C(=O)NC(C4CC4)C(F)(F)F)c3)cc12` (centres unmarked) [Compound 5001], the EC50 is reported as 0.0229 µM. Work on `CCN(CC)c1cc2oc(-c3ccc(F)cc3)c(C(=O)NC)c2cc1-c1cccc(C(=O)N[C@]2(C(=O)O)C[C@@H]2CO)c1` [Compound 6004] yielded an EC50 of 0.946 µM.
